Reference: patent publication US20020106348A1, “Cancer therapeutics involving the administration of 2-methoxyestradiol and an agent that increases intracellular superoxide anion” (priority 2000, published 2002)
Where a name gives a salt, the structure may show the parent alone. Read-outs that look alike come from different tables or passages of the source.

Columns and labels:
[1] = test system: HL-60; test: Apoptosis / nucleosomal DNA fragmentation in HL-60 cells; assay type: cell-based, human; conditions: for effect on 2-ME-induced apoptosis: HL-60, 1 μM 2-ME plus antioxidant; for DNA fragmentation (apoptosis) in HL-60 cells: estrogen derivatives, FIG. 20
[2] = test system: CLL cells; test: Cellular O2^- by hydroethidine flow cytometry, CLL cells; assay type: cell-based, human; conditions: addition of NAC to 2-ME-treated CLL cells
Protocol: The method using hydroethidine to detect O2^− in tissue sections was adapted for quantitation of intracellular O2^− by flow cytometry analysis. This assay is based on the unique chemical properties of hydroethidine, a weak blue fluorescent dye which is selectively converted by O2^− to ethidium with a bright red fluorescence. The control and drug-treated cells (1.5×10^6/sample) were incubated with hydroethidine (20 ng/ml) for 60 min, washed twice with 3 ml PBS, resuspended in 2 ml PBS, and then analyzed within 1 h by flow cytometry, using the red laser channel.

[3] = test system: CLL cells; conditions: for protection from toxic effect of 2-ME: antioxidant added to 2-ME-treated CLL cells
[4] = test system: HL-60 cells; test: Cellular O2^- by flow cytometry, HL-60 cells; assay type: cell-based, human; conditions: 0.25 μM
[5] = target: NADH:ubiquinone oxidoreductase; phorbol ester-induced ornithine decarboxylase (ODC); conditions: Fang et al, 1998; read-out: IC50 values, NADH:ubiquinone oxidoreductase inhibition / blocking ODC induction; cited from earlier work
[6] = test system: CuZnSOD; test: Inhibition of CuZnSOD by estrogen derivatives; assay type: biochemical; conditions: FIG. 20
[7] = cited from earlier work; for elimination half-life: intravenous
[8] = test system: leukemia cells from a CML (chronic myelogenous leukemia) patient in relapsed blast crisis; test: Induction of apoptosis in primary leukemia cells from a CML patient; assay type: cell-based, human; conditions: in vitro
[9] = test system: c-myc protein; test: c-myc protein expression in B CLL cells; assay type: cell-based, human; conditions: Rituxan alone

Nc1c(Br)cc(Br)cc1CN[C@H]1CC[C@H](O)CC1 [ambroxol]
effect on 2-ME-induced apoptosis [1]: 2-ME-induced apoptosis was significantly reduced

CC(=O)N[C@@H](CS)C(=O)O [N-acetylcysteine, reference compound]
cellular O2^− in 2-ME-treated cells [2]: reduced the accumulation of cellular O2^−
effect on 2-ME-induced apoptosis [1]: 2-ME-induced apoptosis was significantly reduced
protection from toxic effect of 2-ME [3]: protective effect
protection from toxic effect of 2-ME ([3]; listed as NAC): protected the cells from the toxic effect of 2-ME

C=C(C)[C@H]1Cc2c(ccc3c2O[C@@H]2COc4cc(OC)c(OC)cc4[C@@H]2C3=O)O1 [rotenone, reference compound]
cellular O2^− content [4]: increase of cellular O2^−
IC50 [5]: 0.8 to 4 nM

C[C@]12CC[C@@H]3c4cc(O)c(O)cc4CC[C@H]3[C@@H]1CC[C@@H]2O [2-hydroxyestradiol]
DNA fragmentation (apoptosis) in HL-60 cells [1]: induced DNA fragmentation
inhibition of SOD activity [6]: substantially inhibited SOD activity

Sodium Arsenate [reference compound]
sensitivity to single agent ([3]; 2-ME-resistant CLL cells): insensitive to either drug alone
sensitivity to single agent ([3]; CLL cells of the two sensitive patients): relatively sensitive

C[C@]12CC[C@@H]3c4ccc(O)cc4CC[C@H]3[C@@H]1CC[C@@H]2O [17β-estradiol]
DNA fragmentation (apoptosis) in HL-60 cells [1]: little DNA fragmentation
inhibition of SOD activity [6]: minimal activity against SOD

COc1cccc2c1C(=O)c1c(O)c3c(c(O)c1C2=O)C[C@@](O)([C@H](C)O)C[C@@H]3O[C@H]1C[C@H](N)[C@H](O)[C@H](C)O1 [daunorubicinol]
elimination half-life [7]: about 27 hr

COc1cccc2c1C(=O)c1c(O)c3c(c(O)c1C2=O)C[C@@](O)(C(=O)CO)C[C@@H]3O[C@H]1C[C@H](N)[C@H](O)[C@H](C)O1 [Doxorubicin, 5,12-Naphthacenedione, (8s-cis)-10-[(3-amino-2,3,6-trideoxy-α-L-lyxo-hexopyranosyl)oxy]-7,8,9,10-tetrahydro-6,8,1-trihydroxy-8-(hydroxyacetyl)-1-methoxy-hydrochloride]
elimination half-life [7]: about 30 hr

Nc1ccn([C@@H]2O[C@H](CO)[C@@H](O)[C@@H]2O)c(=O)n1 [ara-C, reference compound]
apoptosis in primary CML cells [8]: resistant

Rituxan: antibody specific for CD20 antigen on B lymphocyte
c-myc protein expression [9]: increased expression of c-myc protein
killing of CLL cells ([3]; Rituxan alone, various concentrations): did not result in any significant killing
enhancement of 2-ME activity ([3]; cells sensitive or resistant to 2-ME): did not significantly enhance the activity of 2-ME

COc1cc2c(cc1O)CC[C@@H]1[C@@H]2CC[C@]2(C)C(=O)CC[C@@H]12 [2-methoxyestrone]
DNA fragmentation (apoptosis) in HL-60 cells [1]: induced DNA fragmentation
inhibition of SOD activity [6]: substantially inhibited SOD activity

COc1cccc2c1C(=O)c1c(O)c3c(c(O)c1C2=O)C[C@@](O)(C(C)=O)C[C@@H]3O[C@H]1C[C@H](N)[C@H](O)[C@H](C)O1 [Daunorubicin, 5,12-Naphthacenedione, (8S-cis)-8-acetyl-10-[(3-amino-2,3,6-trideoxy-α-L-lyxo-hexanopyranosyl)oxy]-7,8,9,10-tetrahydro-6,8,11-trihydroxy-10-methoxy-, hydrochloride]
secreted into the bile ([7]; in vivo): ~40%
elimination half-life [7]: about 19 hr
